Laboratory results reported in the CombiSolv-Exp solvation set (Vermeire and Green 2021).

Assay: solvent given as SMILES

## Cc1ccccc1C
In CC#N
  solvation free energy, 298 K: -5.37 kcal/mol
In CC(C)CC(C)(C)C
  solvation free energy, 298 K: -5.5 kcal/mol
In CC(O)CO
  solvation free energy, 298 K: -4.31 kcal/mol
In CCCCCCC
  solvation free energy, 298 K: -5.51 kcal/mol
In CCCCCCCCCCCCCCCC
  solvation free energy, 298 K: -5.38 kcal/mol
In CCCCCCCCO
  solvation free energy, 298 K: -5.3 kcal/mol
In CCCCCO
  solvation free energy, 298 K: -5.18 kcal/mol
In CCCCOC(C)=O
  solvation free energy, 298 K: -6.22 kcal/mol
In CNC=O
  solvation free energy, 298 K: -5.02 kcal/mol
In COCCO
  solvation free energy, 298 K: -5.25 kcal/mol
In ClCCCl
  solvation free energy, 298 K: -6.13 kcal/mol
In NC=O
  solvation free energy, 298 K: -3.55 kcal/mol
In NCCO
  solvation free energy, 298 K: -4.08 kcal/mol
In O
  solvation free energy, 298 K: -0.89 kcal/mol
In O=CN1CCOCC1
  solvation free energy, 298 K: -5.27 kcal/mol
In O=Cc1ccco1
  solvation free energy, 298 K: -5.37 kcal/mol
In OCCO
  solvation free energy, 298 K: -3.65 kcal/mol
In OCCOCCO
  solvation free energy, 298 K: -4.48 kcal/mol
In OCCOCCOCCO
  solvation free energy, 298 K: -4.61 kcal/mol

## O=Cc1ccncc1
In O
  solvation free energy, 298 K: -7 kcal/mol

## CNC
In CCCCCC
  solvation free energy, 298 K: -2.48 kcal/mol
In CCCCCCCCCC
  solvation free energy, 298 K: -2.31 kcal/mol
In CCCCCCCCO
  solvation free energy, 298 K: -2.73 kcal/mol
In CCCO
  solvation free energy, 298 K: -2.99 kcal/mol
In CCO
  solvation free energy, 298 K: -3.27 kcal/mol
In CN(C)C=O
  solvation free energy, 298 K: -2.88 kcal/mol
In CO
  solvation free energy, 298 K: -3.51 kcal/mol
In ClC(Cl)(Cl)Cl
  solvation free energy, 298 K: -2.88 kcal/mol
In N#Cc1ccccc1
  solvation free energy, 298 K: -2.8 kcal/mol
In O
  solvation free energy, 298 K: -4.3 kcal/mol

## Cc1cccc(Nc2ccccc2C(=O)O)c1C
In O
  solvation free energy, 298 K: -6.78 kcal/mol

## [2H][2H]
In Brc1ccccc1
  solvation free energy, 298 K: 1.76 kcal/mol
In C1CCOC1
  solvation free energy, 298 K: 1.47 kcal/mol
In C1COCCO1
  solvation free energy, 298 K: 1.72 kcal/mol
In CC(C)(C)O
  solvation free energy, 298 K: 1.46 kcal/mol
In CC(C)CC(C)(C)C
  solvation free energy, 298 K: 1.27 kcal/mol
In CC(C)CO
  solvation free energy, 298 K: 1.53 kcal/mol
In CCC(C)O
  solvation free energy, 298 K: 1.54 kcal/mol
In CCCCCCC
  solvation free energy, 298 K: 1.27 kcal/mol
In CCCCCCCC
  solvation free energy, 298 K: 1.34 kcal/mol
In CCCCO
  solvation free energy, 298 K: 1.53 kcal/mol
In Clc1ccccc1
  solvation free energy, 298 K: 1.65 kcal/mol
In O
  solvation free energy, 298 K: 2.36 kcal/mol
In O=C1CCCC1
  solvation free energy, 298 K: 1.7 kcal/mol
In O=C1CCCCC1
  solvation free energy, 298 K: 1.73 kcal/mol

## C=CCCCCCCC
In CCCCCCCCO
  solvation free energy, 298 K: -5.21 kcal/mol
In O
  solvation free energy, 298 K: 2.06 kcal/mol

## Cc1cc(C)c2ccccc2c1
In O
  solvation free energy, 298 K: -2.47 kcal/mol

## C=CC(C)(CCC=C(C)C)OC(=O)CCC (stereo not given)
In O
  solvation free energy, 298 K: -3.38 kcal/mol

## Cc1cc(C)nc(NS(=O)(=O)c2ccc(N)cc2)n1
In O
  solvation free energy, 298 K: -20 kcal/mol

## O=C(O)c1ccc(C(=O)O)cc1
In CN1CCCC1=O
  solvation free energy, 298 K: -16.2 kcal/mol
In O
  solvation free energy, 298 K: -11.4 kcal/mol

## CCC(C)(C)C(=O)OC1CC(C)C=C2C=CC(C)C(CCC3CC(O)CC(=O)O3)C21 (stereo not given)
In CC(=O)OC(C)C
  solvation free energy, 298 K: -25 kcal/mol
In CC(=O)OCC(C)C
  solvation free energy, 298 K: -24.9 kcal/mol
In CCC(C)O
  solvation free energy, 298 K: -25.1 kcal/mol
In CCC(C)OC(C)=O
  solvation free energy, 298 K: -24.9 kcal/mol
In CCCCCCCCO
  solvation free energy, 298 K: -24.8 kcal/mol
In CCCCCCO
  solvation free energy, 298 K: -25 kcal/mol
In CCCCCO
  solvation free energy, 298 K: -25 kcal/mol
In CCCCO
  solvation free energy, 298 K: -25.1 kcal/mol
In CCCCOC(C)=O
  solvation free energy, 298 K: -25 kcal/mol
In CCCO
  solvation free energy, 298 K: -25.1 kcal/mol
In CCCOC(C)=O
  solvation free energy, 298 K: -25 kcal/mol
In CCO
  solvation free energy, 298 K: -25.1 kcal/mol
In CCOC(C)=O
  solvation free energy, 298 K: -25.1 kcal/mol
In COC(C)=O
  solvation free energy, 298 K: -25.1 kcal/mol

## [2H]O[2H]
In C1CCCCC1
  solvation free energy, 298 K: -0.54 kcal/mol
In CCO
  solvation free energy, 298 K: -5.24 kcal/mol
In ClC(Cl)(Cl)Cl
  solvation free energy, 298 K: -1.14 kcal/mol
In S=C=S
  solvation free energy, 298 K: -0.75 kcal/mol

## ClCCBr
In O
  solvation free energy, 298 K: -1.95 kcal/mol

## C=C(C)C1CC=C(C)C(O)C1 (stereo not given)
In O
  solvation free energy, 298 K: -4.44 kcal/mol

## CCCCCCCOC(=O)c1ccccc1C(=O)OCCCCC
In O
  solvation free energy, 298 K: -6.78 kcal/mol

## c1ccc2nc3ccccc3cc2c1
In O
  solvation free energy, 298 K: -6.75 kcal/mol

## CCCCCCCOC(=O)c1ccccc1C(=O)OCCCCCC
In O
  solvation free energy, 298 K: -6.67 kcal/mol
